This is an account of results in ChEMBL document CHEMBL5291721, “A preclinical secondary pharmacology resource illuminates target-adverse drug reaction associations of marketed drugs” (Nat Commun, 2023).

Experiment [1] has as its target T1, Alpha-1A adrenergic receptor (Homo sapiens, UniProt P35348).
T1 sequence (P35348 whole entry): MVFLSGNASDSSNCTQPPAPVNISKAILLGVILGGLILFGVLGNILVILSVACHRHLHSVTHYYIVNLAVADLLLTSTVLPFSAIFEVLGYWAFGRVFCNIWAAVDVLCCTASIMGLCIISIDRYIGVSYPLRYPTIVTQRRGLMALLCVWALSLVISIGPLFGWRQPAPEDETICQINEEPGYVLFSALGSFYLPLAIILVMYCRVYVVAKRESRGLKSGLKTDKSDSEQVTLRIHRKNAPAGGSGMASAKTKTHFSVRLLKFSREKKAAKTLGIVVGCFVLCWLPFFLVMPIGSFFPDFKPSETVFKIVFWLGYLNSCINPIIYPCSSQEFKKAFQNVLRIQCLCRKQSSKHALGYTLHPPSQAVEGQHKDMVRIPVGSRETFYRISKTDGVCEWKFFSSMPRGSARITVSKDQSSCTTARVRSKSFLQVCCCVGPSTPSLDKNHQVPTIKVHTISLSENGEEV

The target of experiment [2] is Melanocortin receptor 3 (Homo sapiens, UniProt P41968).
The target of experiment [3] is T2, Alpha-2C adrenergic receptor (Homo sapiens, UniProt P18825).
T2 sequence (P18825 whole entry): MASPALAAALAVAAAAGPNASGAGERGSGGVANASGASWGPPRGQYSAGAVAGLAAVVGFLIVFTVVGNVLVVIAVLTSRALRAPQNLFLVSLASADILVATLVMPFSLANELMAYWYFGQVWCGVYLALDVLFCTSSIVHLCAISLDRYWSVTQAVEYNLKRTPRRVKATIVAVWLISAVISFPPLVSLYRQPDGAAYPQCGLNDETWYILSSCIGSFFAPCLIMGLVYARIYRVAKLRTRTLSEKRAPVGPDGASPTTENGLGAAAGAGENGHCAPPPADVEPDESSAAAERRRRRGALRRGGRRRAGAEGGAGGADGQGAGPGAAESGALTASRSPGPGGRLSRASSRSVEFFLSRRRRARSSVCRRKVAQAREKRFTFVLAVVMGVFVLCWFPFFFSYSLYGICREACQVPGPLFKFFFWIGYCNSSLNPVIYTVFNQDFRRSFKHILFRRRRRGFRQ
The class given is functional.

Experiment [4] deals with T3, Cholecystokinin receptor type A (Homo sapiens, UniProt P32238).
T3 sequence (P32238 whole entry): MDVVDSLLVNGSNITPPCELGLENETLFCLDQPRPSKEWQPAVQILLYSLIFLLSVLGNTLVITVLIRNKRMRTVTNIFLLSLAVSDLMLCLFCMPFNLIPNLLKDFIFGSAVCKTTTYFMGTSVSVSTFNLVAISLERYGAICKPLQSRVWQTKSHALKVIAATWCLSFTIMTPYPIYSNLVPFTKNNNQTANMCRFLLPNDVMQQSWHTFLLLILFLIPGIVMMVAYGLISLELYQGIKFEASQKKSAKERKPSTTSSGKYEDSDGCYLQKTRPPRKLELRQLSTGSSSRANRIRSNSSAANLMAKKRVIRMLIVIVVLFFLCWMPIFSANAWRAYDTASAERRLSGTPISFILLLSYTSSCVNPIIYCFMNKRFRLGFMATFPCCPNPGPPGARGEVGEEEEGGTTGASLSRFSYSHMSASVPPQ

In experiment [5] the target is T4, 5-hydroxytryptamine receptor 1A (Homo sapiens, UniProt P08908).
T4 sequence (P08908 whole entry): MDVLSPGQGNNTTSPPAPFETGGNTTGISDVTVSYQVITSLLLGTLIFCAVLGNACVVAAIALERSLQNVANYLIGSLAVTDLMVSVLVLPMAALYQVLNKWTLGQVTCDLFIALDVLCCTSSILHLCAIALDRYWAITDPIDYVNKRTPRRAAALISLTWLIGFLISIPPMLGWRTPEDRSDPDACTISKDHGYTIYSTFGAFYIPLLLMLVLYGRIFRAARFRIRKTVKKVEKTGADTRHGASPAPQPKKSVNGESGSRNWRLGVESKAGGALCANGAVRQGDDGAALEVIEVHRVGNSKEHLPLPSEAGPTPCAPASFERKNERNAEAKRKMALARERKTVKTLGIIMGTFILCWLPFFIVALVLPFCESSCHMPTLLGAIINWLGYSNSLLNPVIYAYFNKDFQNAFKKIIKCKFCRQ
The class given is functional, cell-based.

The target of experiment [6] is Adenosine receptor A2a (Homo sapiens, UniProt P29274).
The target of experiment [7] is 5-hydroxytryptamine receptor 2A (Homo sapiens, UniProt P28223). It is filed as functional, cell-based.
Experiment [8] deals with T5, Adenosine receptor A3 (Homo sapiens, UniProt P0DMS8).
T5 sequence (P0DMS8 whole entry): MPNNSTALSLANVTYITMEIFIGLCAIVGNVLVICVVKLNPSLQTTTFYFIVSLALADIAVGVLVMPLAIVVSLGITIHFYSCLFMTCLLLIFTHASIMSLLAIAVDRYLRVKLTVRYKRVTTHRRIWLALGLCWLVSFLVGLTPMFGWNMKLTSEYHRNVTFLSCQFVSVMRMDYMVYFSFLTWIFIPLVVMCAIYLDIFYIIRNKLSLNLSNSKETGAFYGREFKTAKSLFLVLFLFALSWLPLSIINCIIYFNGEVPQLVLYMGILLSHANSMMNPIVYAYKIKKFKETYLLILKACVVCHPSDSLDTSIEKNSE

The target in experiment [9] is T6, Amine oxidase [flavin-containing] A (Homo sapiens, UniProt P21397).
T6 sequence (P21397 whole entry): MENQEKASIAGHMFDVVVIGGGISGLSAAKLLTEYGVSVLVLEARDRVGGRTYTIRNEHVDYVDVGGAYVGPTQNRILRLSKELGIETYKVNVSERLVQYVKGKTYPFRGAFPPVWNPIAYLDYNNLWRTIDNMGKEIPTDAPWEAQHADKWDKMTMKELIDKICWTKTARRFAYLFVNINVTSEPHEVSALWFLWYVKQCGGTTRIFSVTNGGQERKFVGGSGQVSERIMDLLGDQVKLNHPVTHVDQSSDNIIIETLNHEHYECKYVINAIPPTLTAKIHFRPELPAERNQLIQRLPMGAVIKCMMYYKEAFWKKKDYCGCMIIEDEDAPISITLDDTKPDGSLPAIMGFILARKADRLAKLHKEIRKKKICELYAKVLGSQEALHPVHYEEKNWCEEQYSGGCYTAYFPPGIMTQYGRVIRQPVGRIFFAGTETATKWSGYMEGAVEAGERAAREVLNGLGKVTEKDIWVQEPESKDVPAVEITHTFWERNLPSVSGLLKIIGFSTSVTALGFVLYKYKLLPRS
The class given is functional.

The target in experiment [10] is Muscarinic acetylcholine receptor M3 (Homo sapiens, UniProt P20309).
In experiment [11] the target is Cannabinoid receptor 1 (Homo sapiens, UniProt P21554). The class given is functional, cell-based.
Further: assay procedure not described here.

Sequence of Muscarinic acetylcholine receptor M3 (P20309 whole entry): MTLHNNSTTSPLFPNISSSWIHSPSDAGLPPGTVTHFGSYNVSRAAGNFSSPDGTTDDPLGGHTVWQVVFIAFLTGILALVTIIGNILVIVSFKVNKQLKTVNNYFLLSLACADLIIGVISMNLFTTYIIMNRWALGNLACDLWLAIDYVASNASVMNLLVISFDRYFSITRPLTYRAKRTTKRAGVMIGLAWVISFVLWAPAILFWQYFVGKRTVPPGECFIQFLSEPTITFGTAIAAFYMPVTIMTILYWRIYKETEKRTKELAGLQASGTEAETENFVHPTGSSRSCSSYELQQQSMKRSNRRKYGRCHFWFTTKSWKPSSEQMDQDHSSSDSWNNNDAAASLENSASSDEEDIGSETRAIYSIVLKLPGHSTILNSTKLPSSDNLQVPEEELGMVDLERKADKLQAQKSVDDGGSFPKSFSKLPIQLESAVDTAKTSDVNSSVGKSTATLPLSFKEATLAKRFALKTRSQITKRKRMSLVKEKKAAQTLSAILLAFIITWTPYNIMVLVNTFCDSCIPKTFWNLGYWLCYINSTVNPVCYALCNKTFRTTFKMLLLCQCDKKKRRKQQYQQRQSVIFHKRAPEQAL
Sequence of Cannabinoid receptor 1 (P21554 whole entry): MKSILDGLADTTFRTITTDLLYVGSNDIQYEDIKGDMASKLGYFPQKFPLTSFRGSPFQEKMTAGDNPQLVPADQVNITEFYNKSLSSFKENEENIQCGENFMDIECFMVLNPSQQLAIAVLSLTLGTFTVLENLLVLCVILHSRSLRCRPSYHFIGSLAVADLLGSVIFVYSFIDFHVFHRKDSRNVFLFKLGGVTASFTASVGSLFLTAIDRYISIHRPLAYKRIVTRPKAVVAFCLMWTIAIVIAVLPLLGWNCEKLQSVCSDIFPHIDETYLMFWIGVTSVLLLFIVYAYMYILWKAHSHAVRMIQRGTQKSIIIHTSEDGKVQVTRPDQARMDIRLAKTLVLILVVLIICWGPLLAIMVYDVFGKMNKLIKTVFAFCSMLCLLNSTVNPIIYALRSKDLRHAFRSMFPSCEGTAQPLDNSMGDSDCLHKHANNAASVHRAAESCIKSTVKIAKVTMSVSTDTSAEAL
Sequence of Melanocortin receptor 3 (P41968 whole entry): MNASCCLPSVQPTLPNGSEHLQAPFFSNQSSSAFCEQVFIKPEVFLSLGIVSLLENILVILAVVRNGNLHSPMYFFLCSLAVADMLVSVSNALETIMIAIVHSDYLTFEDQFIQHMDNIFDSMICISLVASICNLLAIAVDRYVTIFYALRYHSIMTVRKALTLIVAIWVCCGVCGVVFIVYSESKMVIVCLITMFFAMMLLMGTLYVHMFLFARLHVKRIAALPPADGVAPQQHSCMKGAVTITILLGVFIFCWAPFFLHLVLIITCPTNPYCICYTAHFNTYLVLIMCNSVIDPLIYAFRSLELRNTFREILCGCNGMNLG
Sequence of 5-hydroxytryptamine receptor 2A (P28223 whole entry): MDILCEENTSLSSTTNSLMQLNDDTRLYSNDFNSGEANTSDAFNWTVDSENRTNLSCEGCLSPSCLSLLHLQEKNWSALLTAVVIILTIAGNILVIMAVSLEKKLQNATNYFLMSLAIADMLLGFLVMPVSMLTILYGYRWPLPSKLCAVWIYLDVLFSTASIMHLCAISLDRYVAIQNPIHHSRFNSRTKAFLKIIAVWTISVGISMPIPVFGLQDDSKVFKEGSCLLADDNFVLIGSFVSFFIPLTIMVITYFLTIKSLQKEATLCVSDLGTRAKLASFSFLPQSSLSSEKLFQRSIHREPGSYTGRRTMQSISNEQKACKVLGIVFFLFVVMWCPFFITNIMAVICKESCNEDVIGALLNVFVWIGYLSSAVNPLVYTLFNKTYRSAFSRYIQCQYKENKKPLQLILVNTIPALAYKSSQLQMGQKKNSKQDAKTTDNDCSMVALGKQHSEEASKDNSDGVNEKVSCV
Sequence of Adenosine receptor A2a (P29274 whole entry): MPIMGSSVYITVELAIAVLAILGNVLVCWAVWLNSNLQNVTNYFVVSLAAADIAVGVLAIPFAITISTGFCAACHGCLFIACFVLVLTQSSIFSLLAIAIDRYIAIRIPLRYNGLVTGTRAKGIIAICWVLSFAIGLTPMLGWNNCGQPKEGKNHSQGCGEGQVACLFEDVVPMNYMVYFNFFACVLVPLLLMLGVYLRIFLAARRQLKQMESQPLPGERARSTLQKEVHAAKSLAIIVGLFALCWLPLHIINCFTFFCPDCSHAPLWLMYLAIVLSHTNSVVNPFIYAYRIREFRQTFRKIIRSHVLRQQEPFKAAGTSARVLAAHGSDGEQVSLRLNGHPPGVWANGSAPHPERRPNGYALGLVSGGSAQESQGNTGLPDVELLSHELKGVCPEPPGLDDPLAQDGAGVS

As to `CCN(CC)CCCN(c1ccccc1)C1Cc2ccccc2C1` [APRINDINE], the AC50 (in general, the concentration at which the activity in the assay is half-maximal) in [1] is 1.3 µM; in experiment [2], more than 30 µM; in experiment [3] it was 7.9 µM; in [4], more than 30 µM; in experiment [5] it was more than 10 µM; in experiment [6], more than 30 µM. In addition, the AC50 in [7], in experiment [8], in [9], in [10] and in experiment [11] was more than 30 µM throughout.
Consider `C[C@@H](Cc1ccccc1)N(C)Cc1ccccc1` [BENZPHETAMINE], for which the AC50 in experiment [1] was 6.96 µM; in [2] it was more than 10 µM; in experiment [3] it was 0.68 µM; in experiment [4], more than 10 µM; in [6] it was more than 10 µM; in experiment [7] it was more than 10 µM. Also, the AC50 in experiment [8] was more than 10 µM; in experiment [9], more than 10 µM; in experiment [10], more than 30 µM; in [11], more than 30 µM.
Take `COc1ccc(C(Cl)=C(c2ccc(OC)cc2)c2ccc(OC)cc2)cc1` [CHLOROTRIANISENE]: the AC50 is more than 10 µM in [1]; more than 30 µM in experiment [2]; more than 30 µM in [3]; more than 30 µM in experiment [4]; more than 10 µM in experiment [5]; more than 30 µM in [6]. For the same molecule, the AC50 in [7] was more than 30 µM; in experiment [8] it was 28 µM; in experiment [9], more than 30 µM; in experiment [10], more than 30 µM; in experiment [11] it was more than 30 µM.
With `Oc1cc(O)c2c(c1)O[C@H](c1ccc(O)c(O)c1)[C@@H](O)C2` [CIANIDANOL], the concentration at half-maximal activity (AC50) in [1] is more than 10 µM; in experiment [2], more than 30 µM; in experiment [3], more than 10 µM; in [4] it was more than 30 µM; in [5] it was more than 10 µM; in experiment [6], more than 30 µM. The AC50 was more than 30 µM in experiment [7]; 22.2 µM in experiment [8]; more than 10 µM in experiment [9]; more than 30 µM in [10]; more than 30 µM in experiment [11].
Consider `C=C(c1ccccc1OCc1cccc(Cl)c1)n1ccnc1` [CROCONAZOLE], for which the half-maximal activity concentration (AC50) in experiment [1] is 9.4 µM; in experiment [2], more than 30 µM; in experiment [3], more than 10 µM; in experiment [4], more than 30 µM; in experiment [5], 24 µM; in experiment [6], more than 30 µM. The AC50 in experiment [7] was more than 30 µM; in experiment [8], 11.5 µM; in [9], more than 10 µM; in [10] it was more than 30 µM; in experiment [11], 15 µM.
In the case of `COC(=O)[C@H]1[C@H]2C[C@@H]3c4[nH]c5ccccc5c4CCN3C[C@H]2C[C@@H](OC(=O)c2cc(OC)c(OC)c(OC)c2)[C@@H]1OC` [DESERPIDINE], the AC50 in experiment [1] is more than 10 µM; in [2] it was more than 30 µM; in experiment [3] it was 12 µM; in experiment [4], 34.4 µM; in experiment [5], more than 10 µM; in experiment [6] it was more than 30 µM. Besides, the AC50 was more than 10 µM in experiment [7], 15.8 µM in experiment [8], more than 10 µM in [9] and more than 30 µM in experiment [10].
Turning to `COc1ccc2c3c1O[C@H]1C(=O)CC[C@H]4[C@@H](C2)N(C)CC[C@]314` [HYDROCODONE], the AC50 was more than 10 µM in experiment [1]; more than 30 µM in experiment [2]; more than 10 µM in [3]; more than 30 µM in experiment [4]; more than 10 µM in experiment [5]; more than 30 µM in experiment [6]. In addition, the AC50 is more than 30 µM in experiment [7], more than 30 µM in experiment [8], more than 10 µM in experiment [9] and more than 10 µM in experiment [10].
For `CCC(NC(C)C)C(O)c1ccc(O)c(O)c1` (centres undefined) [ISOETHARINE], the AC50 in [1], in [2], in experiment [3], in experiment [4], in experiment [5] and in [6] was more than 30 µM each time. The AC50 in [7], in experiment [8], in experiment [9] and in experiment [10] was more than 30 µM in each case.
Turning to `CCC1(CC)C(=O)NC(=O)N(C)C1=O` [METHARBITAL], the AC50 in experiment [1], in experiment [2], in experiment [3], in experiment [4], in experiment [5] and in [6] was more than 10 µM in each case. Further, the AC50 in [7] was more than 10 µM; in experiment [8], more than 10 µM; in [9], more than 10 µM; in experiment [10] it was more than 30 µM.
Turning to `CCOC(=O)O[C@]1(C(=O)COC(=O)CC)CC[C@H]2[C@@H]3CCC4=CC(=O)C=C[C@]4(C)[C@H]3[C@@H](O)C[C@@]21C` [PREDNICARBATE], the AC50 in experiment [1], in [2], in experiment [3], in experiment [4], in [5] and in experiment [6] was more than 10 µM throughout. Moreover, the AC50 is more than 10 µM in experiment [7], more than 10 µM in experiment [8], more than 10 µM in experiment [9] and more than 30 µM in experiment [10].
For the molecule `CCC(=O)[C@@]1(C)[C@H](C)C[C@H]2[C@@H]3CCC4=CC(=O)C=C[C@]4(C)[C@H]3[C@@H](O)C[C@@]21C` [RIMEXOLONE], the AC50 in [1], in experiment [2], in [3], in experiment [4], in experiment [5] and in experiment [6] was more than 10 µM in each case. Further, the AC50 in [7] was more than 10 µM; in [8], more than 10 µM; in experiment [9] it was more than 10 µM; in experiment [10] it was more than 30 µM.
